Laboratory results: patent publication US10178867B2, “Treating microbe contamination in water with THP salts and polymeric biopenetrants” (priority 2004, dated 2019)

What was measured:
[1] = tested on: General Heterotrophic Bacteria; test: Quantitative suspension test (planktonic bacteria) in WHO water; type: cell-based; settings: 50 ppm ai THPS
Source text: Quantitative Suspension Test (Planktonic Bacteria) in WHO Water

[2] = tested on: GHB; test: Quantitative suspension test in de inking water, GHB; type: cell-based, general heterotrophic bacteria; settings: 75 ppm ai THPS, 3 hour contact
Source text: (§1) Quantitative Suspension Test in De Inking Water

[3] = tested on: SRB; test: Quantitative suspension test in de inking water, SRB; type: cell-based, sulphate reducing bacteria; settings: 75 ppm ai THPS, 3 hour contact
Source text: as §1

[4] = tested on: GHB; test: Biofilm (sessile) test, freshwater (WHO); type: cell-based, general heterotrophic bacteria; settings: after 75 ppm ai THPS dosed for 3 hours
Source text: Biofilm (Sessile) Tests: Freshwater (WHO)

[5] = tested on: GHB; test: Biofilm test, seawater (SMOW), GHB; type: cell-based, general heterotrophic bacteria; settings: after 75 ppm ai THPS dosed for 3 hours
Source text: (§2) Biofilm Tests: Seawater (SMOW)

[6] = tested on: SRB; test: Biofilm test, seawater (SMOW), SRB; type: cell-based, sulphate reducing bacteria; settings: after 75 ppm ai THPS dosed for 3 hours
Source text: as §2

Substance: tetrakis(hydroxymethyl)phosphonium sulphate [Unformulated THPS]
- Log Reduction of General Heterotrophic Bacteria ([1]; 1 hour contact): 1
- Log Reduction of General Heterotrophic Bacteria ([1]; 3 hour contact): 5.8
- Log reduction values, GHB [2]: 3.8
- Log reduction values, SRB [3]: 3
- Viable bacteria, GHB [4]: 1 × 10^5
- Viable bacteria, GHB [5]: 1 × 10^2
- Viable bacteria, SRB [6]: 1 × 10^4
